Legend:
[1] = tested on: urease from Arthrobacter parafineus ATCC 15591; assay: Km determination, crude enzymatic solution (Example 2); assay type: biochemical
Method: The above reagents are mixed with each other and incubated at 37°C for 5 minutes. To the mixture is added 0.01 ml of an enzyme solution, the enzymatic activity of which is to be determined. The absorba^ncy at OD340nm (=E1) after one minute and that at OD340nm (=E2) after two minutes are recorded at 37°C on a spectrophotometer, respectively.
In this example, each of the strains identified in the following Table 1 is cultured in the same manner as described in Example 1 to obtain microbial cells. From the microbial cells, a crude enzymatic solution is prepared to culculate the enzymatic activity and to determine the Km value.

[2] = substrate: NC(N)=O; assay: purified protein, by the assay type; conditions: other: phosphate buffer (pH 7.5), purified enzyme preparate of Example 1

## NC(N)=O [urea]
[1]
  Km: 20 mM

B1: urease from Corynebacterium lilium ATCC 21644 (Corynebacterium glutamicum ATCC 13032) (protein)
chain: MSFEISRKQYTDLYGPTVGDSVRLADTELFLCVEKDYAAIGEEVAFGGGKVIRDGMGQNGTLVRDVDIPDTVITNVIVLDYTGVYKADVALRDGKIFRIGKAGNPNVMENVDIVIGVATDIIAGEGKILTAGGIDTHVHFLGTDQVNTALASGITTMIGGGTGPSQASMATTVTPGQWNTYNMLSAFEGMPMNFGILGKGHGSSKSPLAEQVRAGAIGLKIHEDWGATPSSINTALEVADDMDIQVALHSDTLNEAGFVEDTIEAIAGRVIHTFHTEGAGGGHAPDLIRVAALPNVLPASTNPTLPYTRNTVEEHLDMVMVAHHLNPDIPEDVAFADSRIRAETIAAEDVLHDMGIFSITSSDSQAMGRVGETITRTWQVADHMKRTRGSLTGDAPYNDNNRLRRFIAKYTINPAIAHGVDYVVGSVEEGKFADLVLWDPKFFGVKPDLVIKGGLMVNSLMGDSNGSIPTPQPRTLRNTWGAFGQAVSRSSITFLSQDAIDANVPDLLNLRKQIRGVRGVRNLTKRDMKLNAEMPDIRVDPETYQVFVNGELITSKPAETVPMARRYFLF
[2]
  Km: 20 mM

Source: EP0079792A2, “Process for production of urease” (priority 1981, dated 1983)
